What was measured:
NKG2A+/NKG2C− NK cells = assay: NK cell activation markers in NKG2A+/NKG2C- NK cells incubated with peptide and K562 expressing HLA-E (inhibition); assay type: cell-based, human; settings: for percentage of CCL3+ NK cells / percentage of CD107a+ NK cells / percentage of IFNG+ NK cells / percentage of TNF+ NK cells: NKG2A+/NKG2C- NK cells, K562/HLA-E
Procedure: (§1) A human immortalized myelogenous leukemia cell line (K562), which expresses HLA-E was incubated with novel peptides (Table 1) derived from the human proteome or human cytomegalovirus proteome. […] Controls assessments were also performed using NKG2A−/NKG2C− cells (Tables 10-13). Inhibition was indicated by a decrease in percent cells positive for cell surface markers, while activation was indicated by an increase in percent cells positive for cell surface markers.

NKG2A−/NKG2C+ NK cells = assay: NK cell activation markers in NKG2A-/NKG2C+ NK cells incubated with peptide and K562 expressing HLA-E (activation); assay type: cell-based, human; settings: for effect on NKG2A−/NKG2C+ NK cell activation (in words): K562 expressing HLA-E, CD107a, IFNG, TNF, CCL3; for percentage of CCL3+ NK cells / percentage of CD107+ NK cells / percentage of IFNG+ NK cells / percentage of TNF+ NK cells: NKG2A-/NKG2C+ NK cells, K562/HLA-E
Procedure: as §1

NKG2A−/NKG2C− NK cells = assay: NK cell activation markers in control NKG2A-/NKG2C- NK cells incubated with peptide and K562 expressing HLA-E; assay type: cell-based, human
Procedure: as §1

HLA-E = molecular target: T1, HLA-E (Homo sapiens, UniProt P13747); assay: HLA-E surface stabilization assay with RMA-S/HLA-E cells; assay type: cell-based; settings: 30 μM peptide, 16 hours, anti-HLA-E antibody
T1 construct: expressed in transfected cells; host or cells: RMA-S/HLA-E cells (antigen processing-defective lymphoma cell line)
T1 sequence (P13747 22-358): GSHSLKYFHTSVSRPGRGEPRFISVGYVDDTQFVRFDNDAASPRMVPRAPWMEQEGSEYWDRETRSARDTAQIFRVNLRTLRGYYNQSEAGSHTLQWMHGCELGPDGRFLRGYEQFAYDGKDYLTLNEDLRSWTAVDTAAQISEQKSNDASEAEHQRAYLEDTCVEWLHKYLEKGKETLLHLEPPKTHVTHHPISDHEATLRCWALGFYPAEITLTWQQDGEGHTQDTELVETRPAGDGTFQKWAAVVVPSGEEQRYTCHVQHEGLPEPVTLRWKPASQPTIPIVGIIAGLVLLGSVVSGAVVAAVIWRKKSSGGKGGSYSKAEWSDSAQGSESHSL
T1 sequence (P61769 21-119 partner): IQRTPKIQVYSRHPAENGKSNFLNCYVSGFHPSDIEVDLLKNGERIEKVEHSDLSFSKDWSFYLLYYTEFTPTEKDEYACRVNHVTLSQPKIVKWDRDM
Procedure: HLA-E surface expression was assessed by measuring geometric mean fluorescence intensity (GeoMFI) in RMA-S cells following immunofluorescence staining with an anti-HLA-E antibody (Table 14). Increased GeoMFI was indicative of increased HLA-E surface expression stability following novel peptide exposures (FIG. 3).

RMPPRSVLL [human12]
effect on NKG2A+/NKG2C− NK cell inhibition (in words) (NKG2A+/NKG2C− NK cells; K562 expressing HLA-E, CD107a, IFNG, TNF, CCL3): strong inhibitory
percentage of CCL3+ NK cells (NKG2A+/NKG2C− NK cells; Trial 1): 1.94%
percentage of CD107a+ NK cells (NKG2A+/NKG2C− NK cells; Trial 1): 0.85%
percentage of IFNG+ NK cells (NKG2A+/NKG2C− NK cells; Trial 1): 0.14%
percentage of TNF+ NK cells (NKG2A+/NKG2C− NK cells; Trial 1): 0.03%
percentage of CCL3+ NK cells (NKG2A+/NKG2C− NK cells; Trial 2): 2.96%
percentage of CD107a+ NK cells (NKG2A+/NKG2C− NK cells; Trial 2): 0.99%
percentage of IFNG+ NK cells (NKG2A+/NKG2C− NK cells; Trial 2): 0.32%
percentage of TNF+ NK cells (NKG2A+/NKG2C− NK cells; Trial 2): 0.17%
percentage of CCL3+ NK cells (NKG2A+/NKG2C− NK cells; Trial 3): 2.9%
percentage of CD107a+ NK cells (NKG2A+/NKG2C− NK cells; Trial 3): 1.25%
percentage of IFNG+ NK cells (NKG2A+/NKG2C− NK cells; Trial 3): 0.65%
percentage of TNF+ NK cells (NKG2A+/NKG2C− NK cells; Trial 3): 0.45%
effect on NKG2A−/NKG2C+ NK cell activation (in words) (NKG2A−/NKG2C+ NK cells; listed as SEQ ID NO. 13): strong activating effects
effect on NKG2A−/NKG2C+ NK cell activation (in words) (NKG2A−/NKG2C+ NK cells; listed as h12): strong inhibitory and activating effects
percentage of CCL3+ NK cells (NKG2A−/NKG2C+ NK cells; Trial 1): 55.3%
percentage of CD107+ NK cells (NKG2A−/NKG2C+ NK cells; Trial 1): 36.5%
percentage of IFNG+ NK cells (NKG2A−/NKG2C+ NK cells; Trial 1): 20.7%
percentage of TNF+ NK cells (NKG2A−/NKG2C+ NK cells; Trial 1): 12.6%
percentage of CCL3+ NK cells (NKG2A−/NKG2C+ NK cells; Trial 2): 83.9%
percentage of CD107+ NK cells (NKG2A−/NKG2C+ NK cells; Trial 2): 77%
percentage of IFNG+ NK cells (NKG2A−/NKG2C+ NK cells; Trial 2): 63.3%
percentage of TNF+ NK cells (NKG2A−/NKG2C+ NK cells; Trial 2): 52.7%
percentage of CCL3+ NK cells (NKG2A−/NKG2C+ NK cells; Trial 3): 81.7%
percentage of CD107+ NK cells (NKG2A−/NKG2C+ NK cells; Trial 3): 80.3%
percentage of IFNG+ NK cells (NKG2A−/NKG2C+ NK cells; Trial 3): 66.3%
percentage of TNF+ NK cells (NKG2A−/NKG2C+ NK cells; Trial 3): 59.6%
percentage CCL3+ NK cells (NKG2A−/NKG2C− NK cells; Trial 1): 29.3%
percentage CD107+ NK cells (NKG2A−/NKG2C− NK cells; Trial 1): 20.2%
percentage TNF+ NK cells (NKG2A−/NKG2C− NK cells; Trial 1): 3.43%
percentage of IFNG+ NK cells (NKG2A−/NKG2C− NK cells; Trial 1): 10.2%
percentage CCL3+ NK cells (NKG2A−/NKG2C− NK cells; Trial 2): 51.6%
percentage CD107+ NK cells (NKG2A−/NKG2C− NK cells; Trial 2): 29%
percentage TNF+ NK cells (NKG2A−/NKG2C− NK cells; Trial 2): 9.58%
percentage of IFNG+ NK cells (NKG2A−/NKG2C− NK cells; Trial 2): 24%
percentage CCL3+ NK cells (NKG2A−/NKG2C− NK cells; Trial 3): 46.5%
percentage CD107+ NK cells (NKG2A−/NKG2C− NK cells; Trial 3): 42%
percentage TNF+ NK cells (NKG2A−/NKG2C− NK cells; Trial 3): 15.5%
percentage of IFNG+ NK cells (NKG2A−/NKG2C− NK cells; Trial 3): 36.2%
HLA-E surface expression stability (GeoMFI) (HLA-E; Trial 1): 3779 GeoMFI
HLA-E surface expression stability (GeoMFI) (HLA-E; Trial 2): 4219 GeoMFI
HLA-E surface expression stability (GeoMFI) (HLA-E; Trial 3): 4273 GeoMFI
HLA-E surface expression stability (GeoMFI) (HLA-E; Trial 4): 4705 GeoMFI

From US20240092835A1, “NOVEL PEPTIDES CAPABLE OF ALTERING NK CELL ACTIVITY” (Massachusetts Institute of Technology, priority 2022, published 2024)
